Here are results for seven molecules from article PMC5100569 (Nucleic Acids Research, 2016).

In data set [1] the target is T1, saCodY (Staphylococcus aureus, UniProt A7X1N2).
T1 sequence (A7X1N2 1-257): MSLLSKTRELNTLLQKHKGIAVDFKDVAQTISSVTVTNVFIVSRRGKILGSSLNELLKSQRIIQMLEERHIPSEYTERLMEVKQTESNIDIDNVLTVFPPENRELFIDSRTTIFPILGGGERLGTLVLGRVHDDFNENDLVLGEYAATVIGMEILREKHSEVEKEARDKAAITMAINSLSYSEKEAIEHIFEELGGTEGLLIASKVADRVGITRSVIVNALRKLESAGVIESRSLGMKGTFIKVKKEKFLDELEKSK
Description: surface plasmon resonance. In kind it is binding. (In SPR one partner is held on a chip, and binding of the other changes the refractive index at the surface.)

The target of data set [2] is saCodY (Staphylococcus aureus, UniProt A7X1N2, E153A). Description: biochemical.
Data set [3] concerns the target saCodY (Staphylococcus aureus, UniProt A7X1N2, H70A/K158A/K47A/R45A/S43A). Description: biochemical.
A further data set deals with T2, bcCodY (Bacillus cereus, UniProt Q819X8).
T2 sequence (Q819X8 1-259): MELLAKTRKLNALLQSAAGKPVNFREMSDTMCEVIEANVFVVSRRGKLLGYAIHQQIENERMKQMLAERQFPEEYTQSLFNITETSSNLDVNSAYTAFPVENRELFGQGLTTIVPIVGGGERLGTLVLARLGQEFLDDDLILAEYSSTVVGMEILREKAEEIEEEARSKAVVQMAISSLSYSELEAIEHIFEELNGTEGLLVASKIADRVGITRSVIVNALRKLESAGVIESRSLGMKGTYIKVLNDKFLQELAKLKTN
Briefly: size-exclusion chromatography, change of oligomeric state. To be noted: 1 mM GTP, pH 8.0, no Ile. In kind it is binding.

The data set “SEC” concerns the molecule itself. Briefly: SEC. A general note: In gel filtration, larger molecules generally elute earlier.
A further data set addresses T3, saCodY E153A (Staphylococcus aureus, UniProt A7X1N2 1-257, E153A).
T3 sequence: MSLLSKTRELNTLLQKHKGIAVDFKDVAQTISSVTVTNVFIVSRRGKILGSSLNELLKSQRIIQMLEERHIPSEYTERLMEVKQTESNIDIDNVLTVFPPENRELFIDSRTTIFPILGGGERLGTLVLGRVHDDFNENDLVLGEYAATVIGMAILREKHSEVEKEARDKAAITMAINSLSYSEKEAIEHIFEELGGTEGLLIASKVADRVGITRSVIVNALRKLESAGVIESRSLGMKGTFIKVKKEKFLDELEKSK
Description: EMSA.

The next data set addresses T4, saCodY 3P5A (Staphylococcus aureus, UniProt A7X1N2 1-257, S43A;R45A;K47A;H70A;K158A).
T4 sequence: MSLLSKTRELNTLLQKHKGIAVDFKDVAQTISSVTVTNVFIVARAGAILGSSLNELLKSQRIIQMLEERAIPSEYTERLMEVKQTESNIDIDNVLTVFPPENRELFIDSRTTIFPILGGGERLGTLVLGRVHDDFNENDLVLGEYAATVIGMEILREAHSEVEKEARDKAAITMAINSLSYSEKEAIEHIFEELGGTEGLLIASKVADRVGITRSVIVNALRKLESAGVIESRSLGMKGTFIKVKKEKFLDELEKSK
Briefly: EMSA. (In general: Mobility shift assays separate free from complexed probe on a gel.)

The data set “crystal structure” deals with the molecule itself. Briefly: crystal structure.

Consider `Nc1ncnc2c1ncn2[C@@H]1O[C@H](COP(=O)(O)OP(=O)(O)OP(=O)(O)O)[C@@H](O)[C@H]1O` [ATP], for which the affinity on saCodY [1], expressed as Kd, was 19 mM.
On the same count and under the same terms, as for `Nc1nc2c(ncn2[C@@H]2O[C@H](COP(=O)(O)OP(=O)(O)O)[C@@H](O)[C@H]2O)c(=O)[nH]1` [GDP], the figure is 17 mM; as for `Nc1nc2c(ncn2[C@@H]2O[C@H](COP(=O)(O)O)[C@@H](O)[C@H]2O)c(=O)[nH]1` [GMP], 20 mM.
In the case of `Nc1nc2c(ncn2[C@@H]2O[C@H](COP(=O)(O)OP(=O)(O)OP(=O)(O)O)[C@@H](O)[C@H]2O)c(=O)[nH]1` [GTP], the Kd (in general, the equilibrium constant for the complex coming apart) on saCodY [2] amounted to 28 mM; at saCodY [3], 35 mM; on saCodY [1], 2.26 mM. Further, the “size-exclusion chromatography, change of oligomeric state” value on bcCodY was “after incubation of saCodY and bcCodY with GTP, the proteins eluted at much smaller sizes”.

B1: CodY from Bacillus cereus (bcCodY), wild type (natural protein, UniProt Q819X8 1-259, looked up)
chain: MELLAKTRKLNALLQSAAGKPVNFREMSDTMCEVIEANVFVVSRRGKLLGYAIHQQIENERMKQMLAERQFPEEYTQSLFNITETSSNLDVNSAYTAFPVENRELFGQGLTTIVPIVGGGERLGTLVLARLGQEFLDDDLILAEYSSTVVGMEILREKAEEIEEEARSKAVVQMAISSLSYSELEAIEHIFEELNGTEGLLVASKIADRVGITRSVIVNALRKLESAGVIESRSLGMKGTYIKVLNDKFLQELAKLKTN
Regarding B1, the stoichiometry N (in general, a count of units in the complex or per binding partner) in “SEC” turned out to be 4.

B2: ilvB promoter 45-mer (dsDNA)
DNA 1: CAGGTGGCGTCATGCAAGTCCCTGAGAATTTAATTTAATTTATTT
DNA 2: AAATAAATTAAATTAAATTCTCAGGGACTTGCATGACGCCACCTC
B2: the binding signal came out at 1.7 fold Kd vs WT without GTP in the data set with saCodY E153A and 3 fold Kd vs WT without GTP in the data set with saCodY 3P5A.

B3: CodY from Staphylococcus aureus (saCodY), wild type (natural protein, UniProt A7X1N2 1-257, looked up)
chain: MSLLSKTRELNTLLQKHKGIAVDFKDVAQTISSVTVTNVFIVSRRGKILGSSLNELLKSQRIIQMLEERHIPSEYTERLMEVKQTESNIDIDNVLTVFPPENRELFIDSRTTIFPILGGGERLGTLVLGRVHDDFNENDLVLGEYAATVIGMEILREKHSEVEKEARDKAAITMAINSLSYSEKEAIEHIFEELGGTEGLLIASKVADRVGITRSVIVNALRKLESAGVIESRSLGMKGTFIKVKKEKFLDELEKSK
As for B3, the entries for the “stoichiometry N” value in “SEC” and in the data set “crystal structure” were 4 and 2, respectively.
